Legend:
Type in all cases: in vivo, Arabidopsis thaliana
Arabidopsis root hairs = test: Root hair number and length quantification
Protocol: All Arabidopsis plant experiments were performed using the Arabidopsis thaliana Columbia-0 background. The Arabidopsis pSPX1::GUS line is described in the Plant Journal 2008, 54: 965-975. For rice, the cultivar Nipponbare was used. For maize, the cultivars DKC 2931 and B104 were used for regular pot experiments and sand-based pot experiments, respectively. For soybean, the cultivar Primus was used. […] The medium was solidified due to the addition of 0.6% Gelrite, unless stated otherwise. In case of vertical plates (root length and root hair measurements), the medium was supplied with 0.5% of sucrose and 1 μM (low phosphate, 1 μM KH2PO4, 9.9 mM KCl), 10 μM (low phosphate 10 μM KH2PO4, 9.9 mM KCl) or 1.25 mM KH2PO4 (high phosphate). Arabidopsis seeds were stratified for 2 days at 4° C. before germination. Seedlings were germinated in climate-controlled growth chambers at 22° C. under continuous light (100 μmol m^−2 s^−1). Husked rice seeds were germinated on wetted Whatman paper for 2 days at 37° C. and then transferred to Sterivent boxes or square Petri dishes with solid medium. Maize and soybean seeds were wetted 24 hours at room temperature prior to sowing in pots.
Roots were imaged using a stereomicroscope or a VHX-6000. Number and length of the root hairs parallel to the medium surface was determined at 4 to 6 mm above the root meristem. Root hair length was measured using the ImageJ software.

Arabidopsis [1] = test: Arabidopsis horizontal plate leaf area assay; conditions: 21 days after germination
Protocol: All Arabidopsis plant experiments were performed using the Arabidopsis thaliana Columbia-0 background. The Arabidopsis pSPX1::GUS line is described in the Plant Journal 2008, 54: 965-975. For rice, the cultivar Nipponbare was used. For maize, the cultivars DKC 2931 and B104 were used for regular pot experiments and sand-based pot experiments, respectively. For soybean, the cultivar Primus was used. […] The medium was solidified due to the addition of 0.6% Gelrite, unless stated otherwise. […]
Arabidopsis primary root growth experiments were done on MS1/2 on vertical standing plates and roots were measured 11 days after germination. Roots were imaged using a flatbed scanner (EPSON Expression 11000XL) and root length was measured using ImageJ software. Arabidopsis shoot biomass was determined in 11 days after germination and growth on vertical standing plates with modMS. Arabidopsis leaf area was measured 21 days after germination on horizontal plates with modMS medium. Plates were scanned from the top using a flatbed scanner (EPSON Expression 11000XL) and the visible leaf area was measured using ImageJ software. […] Plant height was measured 11 days after germination. […] Plant height was measured 13 days after germination. […]

Arabidopsis [2] = test: Arabidopsis pot experiment (rosette size, soil phosphate, anthocyanin)
Protocol: Regular Arabidopsis, soybean and maize pot experiments used an unfertilized potting soil, which was supplemented at the start of the experiment with 50 ml H2O containing 0.25 g/l NH4NO3 and 0.44 g/l (high phosphate) or no (maize and soybean) or 0.11 g/l KH2PO (Arabidopsis) for low phosphate conditions. For the sand-based maize pot experiment, sand was supplemented with 50 ml H2O containing 0.25 g/l NH4NO3 and 0.38 g/l (high phosphate) or 0.02 g/l (low phosphate) KH2PO4. Potassium was balanced via addition of KCl. Compound concentration was 10 μM, calculated based on the total water content after watering, and was added at the start of the experiment (Arabidopsis) or once a week (maize). Indexed chlorophyll contents were received via a SPAD 502 Plus Chlorophyll Meter. All parameters in the sand experiment, except the rate of leaf 4 (measured the first 4 days after emergence), were measured 19 days after sowing. Measurements in the pot experiments with potting soil were done after 4 weeks of growth, except for leaf 5, which was measured at 26 days. One long-term maize pot experiment was conducted with the DKC 2931 (2.5 months) and B104 (3 months) cultivars on the PHENOVISION phenotyping platform as described in Frontiers in Plant Science 2021, 12: 640914, except that an unfertilized potting soil was used and that plants were fertilized with a low-phosphate Hoagland solution. The 2.5× overconcentrated low-phosphate Hoagland solution contained 0.034 g/l KH2PO and 200 mL of this solution was applied twice a week. 1.4 mL of a 10 mM compound solution was added each two weeks to each pot, corresponding to 9.6 mg/g nutrients. 13 plants per condition were used. During the experiment, pictures were taken twice a week for each plants from 6 different angles and the top. […] Extraction and quantification of anthocyanin levels was carried out according to The Plant cell 2013, 25:1641-1656. Anthocyanin levels were quantified by measuring absorption at 530 and 657 nm using a spectrophotometer and normalized to fresh weight input, and expressed relative to the low phosphate control. […]

CC1CN(CC(=O)c2c(N)n(C)c(=O)n(C)c2=O)c2ccccc2O1 (stereo not shown) [Compound 8, 6-amino-1,3-dimethyl-5-[2-(2-methyl-2,3-dihydro-1,4-benzoxazin-4-yl)acetyl]pyrimidine-2,4-dione]
activity at 0.6 µM (Arabidopsis root hairs; Arabidopsis thaliana, 0.6 μM, read-out: Total root hair length per root (in % compared to the control)): 104%
activity at 1.25 µM (Arabidopsis root hairs; Arabidopsis thaliana, 1.25 μM, read-out: Total root hair length per root (in % compared to the control)): 333%
activity at 2.5 µM (Arabidopsis root hairs; Arabidopsis thaliana, 2.5 μM, read-out: Total root hair length per root (in % compared to the control)): 347%
activity at 5 µM (Arabidopsis root hairs; Arabidopsis thaliana, 5 μM, read-out: Total root hair length per root (in % compared to the control)): 485%
activity at 10 µM (Arabidopsis root hairs; Arabidopsis thaliana, 10 μM, read-out: Total root hair length per root (in % compared to the control)): 586%
Average root hair length per root in high phosphate conditions (Arabidopsis root hairs; Arabidopsis vertical plate, high phosphate, control 0.11): 0.32 mm
Root hair number in high phosphate conditions (one plane in 2 mm region) (Arabidopsis root hairs; Arabidopsis vertical plate, high phosphate, control 3): 9
Total root hair length per root in high phosphate conditions (Arabidopsis root hairs; Arabidopsis vertical plate, high phosphate, control 57): 183 cm
Leaf area (Arabidopsis [1]; low phosphate, 10 μM, control 78): 106 mm^2
Leaf area in sub-optimal phosphate conditions (Arabidopsis [1]; sub-optimal phosphate, control 104): 143 mm^2
Relative anthocyanin level (Arabidopsis [2]; 4-week old plant, relative to low phosphate control = 1): 0.6
Phosphate level in soil (relative value) (Arabidopsis [2]; after 4 weeks of growth, relative to low phosphate control = 1): 0.8
Rosette size (Arabidopsis [2]; low phosphate, 10 μM, 4 weeks, control 17): 25 cm^2
